The record followed here is US8580918B2, “Peptidic GLP-2 agonists” (Ferring B.V., priority 2009, dated 2013).

Where a SMILES comes first, the peptide text is derived from it. [ ]: non-standard residue; d: D form. The star is where a group is joined. 2Nal = N[C@@H](Cc1ccc2ccccc2c1)C(=O)O; X2 = NC(=O)COCC(=O)NCCCOCCOCCOCCCN*; d2Thi = N[C@H](Cc1cccs1)C(=O)O; Nle = CCCC[C@H](N)C(=O)O

The first series can be described thus: Pharmacokinetics in rats after intravenous bolus injection (systemic clearance). The class given is in vivo. The following applies: rat, plasma, 0.2 mg FB/kg, adult male Sprague-Dawley rats, i.v. bolus, dose 0.20 mg FB/kg, read-out: CL (ml/kg/min) Average. How it is done:
Pharmacokinetic (PK) parameters of illustrative agonists of the GLP-2 receptor were determined in adult male Sprague-Dawley rats post intravenous bolus injection of compounds at doses of 0.1-1.0 mg/kg. Three or four doubly cannulated animals per compound were dosed via jugular vein, blood samples were collected at several intervals via carotid artery, and plasma samples were prepared from whole blood using K2EDTA as anticoagulant. Subsequent bioanalysis of samples included compound extraction and plasma concentration determination using standard LC/MS/MS methods. Analyte concentration was calculated from internal standard normalized peak area and calibration curves.
For calculation of PK parameters the compound concentration-time curves were analyzed with the noncompartmental data analysis software package PK Solutions 2.0™ (Summit Research Services, Montrose Colo.). The systemic clearance per kg body weight (CL) was calculated as the dose per kg body weight divided by the AUC extrapolated to infinity based on trapezoid calculation (AUC∞). Values reported are the arithmetic mean and standard deviation from the number of animals used for each compound as indicated on Table 3.
For the compound `CCCC[C@H](NC(=O)[C@H](CCC(=O)O)NC(=O)[C@H](CC(=O)O)NC(=O)[C@H](CO)NC(=O)[C@H](Cc1ccccc1)NC(=O)[C@H](CO)NC(=O)CNC(=O)[C@H](CC(=O)O)NC(=O)CNC(=O)[C@@H](N)Cc1cnc[nH]1)C(=O)N[C@H](Cc1ccccc1)C(=O)N[C@H](C(=O)N[C@H](C(=O)N[C@@H](CC(C)C)C(=O)N[C@@H](CC(=O)O)C(=O)N[C@@H](CC(C)C)C(=O)N[C@@H](CC(C)C)C(=O)N[C@@H](C)C(=O)N[C@@H](C)C(=O)N[C@@H](CCCNC(=N)N)C(=O)N[C@@H](CC(=O)O)C(=O)N[C@@H](Cc1ccccc1)C(=O)N[C@H](C(=O)N[C@@H](CC(N)=O)C(=O)N[C@@H](Cc1c[nH]c2ccccc12)C(=O)N[C@@H](CC(C)C)C(=O)N[C@H](C(=O)N[C@@H](CCC(N)=O)C(=O)N[C@H](C(=O)N[C@@H](CCCCN)C(=O)N[C@H](C(=O)N[C@H](C(=O)N[C@@H](CC(=O)O)C(=O)O)[C@@H](C)O)[C@@H](C)CC)[C@@H](C)O)[C@@H](C)CC)[C@@H](C)CC)[C@@H](C)CC)[C@@H](C)O` [Compound 59, [Gly2,Nle10,D-Phe11,Leu16] hGLP-2(1-33)-OH] (H-HGDGSFSDE[Nle][dF]TILDLLAARDFINWLIQTKITD-OH), the clearance stood at 0.22 mL/kg/min.

In the case of `CCCC[C@H](NC(=O)[C@H](CCC(=O)O)NC(=O)[C@H](CC(=O)O)NC(=O)[C@H](CO)NC(=O)[C@H](Cc1ccccc1)NC(=O)[C@H](CO)NC(=O)CNC(=O)[C@H](CC(=O)O)NC(=O)CNC(=O)[C@@H](N)Cc1c[nH]cn1)C(=O)N[C@H](Cc1cccs1)C(=O)N[C@H](C(=O)N[C@H](C(=O)N[C@@H](CC(C)C)C(=O)N[C@@H](CC(=O)O)C(=O)N[C@@H](CC(N)=O)C(=O)N[C@@H](CC(C)C)C(=O)N[C@@H](C)C(=O)N[C@@H](C)C(=O)N[C@@H](CCCNC(=N)N)C(=O)N[C@@H](CC(=O)O)C(=O)N[C@@H](Cc1ccccc1)C(=O)N[C@H](C(=O)N[C@@H](CC(N)=O)C(=O)N[C@@H](Cc1c[nH]c2ccccc12)C(=O)N[C@@H](CC(C)C)C(=O)N[C@H](C(=O)N[C@@H](CCC(N)=O)C(=O)N[C@H](C(=O)N[C@@H](CCCCN)C(N)=O)[C@@H](C)O)[C@@H](C)CC)[C@@H](C)CC)[C@@H](C)CC)[C@@H](C)O` [Compound 32, [Gly2,Nle10,D-Thi11] hGLP-2 (1-30)-NH2] (H-HGDGSFSDE[Nle][d2Thi]TILDNLAARDFINWLIQTK-NH2), the clearance worked out at 1.1 mL/kg/min.

Turning to `CCCC[C@H](NC(=O)[C@H](CCC(=O)O)NC(=O)[C@H](CC(=O)O)NC(=O)[C@H](CO)NC(=O)[C@H](Cc1ccccc1)NC(=O)[C@H](CO)NC(=O)CNC(=O)[C@H](CC(=O)O)NC(=O)CNC(=O)[C@@H](N)Cc1c[nH]cn1)C(=O)N[C@H](Cc1ccccc1)C(=O)N[C@H](C(=O)N[C@H](C(=O)N[C@@H](CC(C)C)C(=O)N[C@@H](CC(=O)O)C(=O)N[C@@H](CC(C)C)C(=O)N[C@@H](CC(C)C)C(=O)N[C@@H](C)C(=O)N[C@@H](C)C(=O)N[C@@H](CCCNC(=N)N)C(=O)N[C@@H](CC(=O)O)C(=O)N[C@@H](Cc1ccccc1)C(=O)N[C@H](C(=O)N[C@@H](CC(N)=O)C(=O)N[C@@H](Cc1c[nH]c2ccccc12)C(=O)N[C@@H](CC(C)C)C(=O)N[C@H](C(=O)N[C@@H](CCC(N)=O)C(=O)N[C@H](C(=O)N[C@@H](CCCCN)C(=O)N[C@H](C(=O)N[C@H](C(=O)N[C@@H](CC(=O)O)C(=O)NCCCOCCOCCOCCCNC(=O)COCC(N)=O)[C@@H](C)O)[C@@H](C)CC)[C@@H](C)O)[C@@H](C)CC)[C@@H](C)CC)[C@@H](C)CC)[C@@H](C)O` [Compound 56, [Gly2,Nle10,D-Phe11,Leu16] hGLP-2(1-33)-NH—CH2—((CH2)2O)3—(CH2)3—NHC(O)—CH2—O—CH2—C(O)—NH2] (H-HGDGSFSDE[Nle][dF]TILDLLAARDFINWLIQTKITD-X2), the clearance amounted to 0.28 mL/kg/min.

For `CCCC[C@H](NC(=O)[C@H](CCC(=O)O)NC(=O)[C@H](CC(=O)O)NC(=O)[C@H](CO)NC(=O)[C@H](Cc1ccccc1)NC(=O)[C@H](CO)NC(=O)CNC(=O)[C@H](CC(=O)O)NC(=O)CNC(=O)[C@@H](N)Cc1c[nH]cn1)C(=O)N[C@H](Cc1ccccc1)C(=O)N[C@H](C(=O)N[C@H](C(=O)N[C@@H](CC(C)C)C(=O)N[C@@H](CC(=O)O)C(=O)N[C@@H](Cc1ccccc1)C(=O)N[C@@H](CC(C)C)C(=O)N[C@@H](C)C(=O)N[C@@H](C)C(=O)N[C@@H](CCCNC(=N)N)C(=O)N[C@@H](CC(=O)O)C(=O)N[C@@H](Cc1ccccc1)C(=O)N[C@H](C(=O)N[C@@H](CC(N)=O)C(=O)N[C@@H](Cc1c[nH]c2ccccc12)C(=O)N[C@@H](CC(C)C)C(=O)N[C@H](C(=O)N[C@@H](CCC(N)=O)C(=O)N[C@H](C(=O)N[C@@H](CCCCN)C(N)=O)[C@@H](C)O)[C@@H](C)CC)[C@@H](C)CC)[C@@H](C)CC)[C@@H](C)O` [Compound 47, [Gly2,Nle10,D-Phe11,Phe16] hGLP-2 (1-30)-NH2] (H-HGDGSFSDE[Nle][dF]TILDFLAARDFINWLIQTK-NH2), the clearance is 0.3 mL/kg/min.

On to `CCCC[C@H](NC(=O)[C@H](CCC(=O)O)NC(=O)[C@H](CC(=O)O)NC(=O)[C@H](CO)NC(=O)[C@H](Cc1ccccc1)NC(=O)[C@H](CO)NC(=O)CNC(=O)[C@H](CC(=O)O)NC(=O)CNC(=O)[C@@H](N)Cc1cnc[nH]1)C(=O)N[C@H](Cc1ccccc1)C(=O)N[C@H](C(=O)N[C@H](C(=O)N[C@@H](CC(C)C)C(=O)N[C@@H](CC(=O)O)C(=O)N[C@@H](CC(C)C)C(=O)N[C@@H](CC(C)C)C(=O)N[C@@H](C)C(=O)N[C@@H](C)C(=O)N[C@@H](CCCNC(=N)N)C(=O)N[C@@H](CC(=O)O)C(=O)N[C@@H](Cc1ccccc1)C(=O)N[C@H](C(=O)N[C@@H](CC(N)=O)C(=O)N[C@@H](Cc1c[nH]c2ccccc12)C(=O)N[C@@H](CC(C)C)C(=O)N[C@H](C(=O)N[C@@H](CCC(N)=O)C(=O)N[C@H](C(=O)N[C@@H](CCCCN)C(N)=O)[C@@H](C)O)[C@@H](C)CC)[C@@H](C)CC)[C@@H](C)CC)[C@@H](C)O` [Compound 48, [Gly2,Nle10,D-Phe11,Leu16] hGLP-2 (1-30)-NH2] (H-HGDGSFSDE[Nle][dF]TILDLLAARDFINWLIQTK-NH2), for which the clearance was 0.37 mL/kg/min.

The same series, now with this note: rat, plasma, adult male Sprague-Dawley rats, i.v. bolus, dose 0.18 mg FB/kg, read-out: CL (ml/kg/min) Average.
`CCCC[C@H](NC(=O)[C@H](CCC(=O)O)NC(=O)[C@H](CC(=O)O)NC(=O)[C@H](CO)NC(=O)[C@H](Cc1ccccc1)NC(=O)[C@H](CO)NC(=O)CNC(=O)[C@H](CC(=O)O)NC(=O)CNC(=O)[C@@H](N)Cc1c[nH]cn1)C(=O)N[C@@H](CC(N)=O)C(=O)N[C@H](C(=O)N[C@H](C(=O)N[C@@H](CC(C)C)C(=O)N[C@@H](CC(=O)O)C(=O)N[C@@H](Cc1ccc2ccccc2c1)C(=O)N[C@@H](CC(C)C)C(=O)N[C@@H](C)C(=O)N[C@@H](C)C(=O)N[C@@H](CCCNC(=N)N)C(=O)N[C@@H](CC(=O)O)C(=O)N[C@@H](Cc1ccccc1)C(=O)N[C@H](C(=O)N[C@@H](CC(N)=O)C(=O)N[C@@H](Cc1c[nH]c2ccccc12)C(=O)N[C@@H](CC(C)C)C(=O)N[C@H](C(=O)N[C@@H](CCC(N)=O)C(=O)N[C@H](C(=O)N[C@@H](CCCCN)C(N)=O)[C@@H](C)O)[C@@H](C)CC)[C@@H](C)CC)[C@@H](C)CC)[C@@H](C)O` [Compound 20, [Gly2,Nle10,2-Nal16] hGLP-2 (1-30)-NH2] (H-HGDGSFSDE[Nle]NTILD[2Nal]LAARDFINWLIQTK-NH2): the clearance was 0.28 mL/kg/min.
